Results on 30 compounds are retold here after patent publication US8796289B2 (AbbVie Inc., priority 2011, dated 2014).

The Ki is a measure of affinity in units of concentration, obtained from inhibition or displacement. High values mean lower affinity, low ones higher affinity.

Chain of GST-tagged-Wee1 kinase (P30291 whole entry): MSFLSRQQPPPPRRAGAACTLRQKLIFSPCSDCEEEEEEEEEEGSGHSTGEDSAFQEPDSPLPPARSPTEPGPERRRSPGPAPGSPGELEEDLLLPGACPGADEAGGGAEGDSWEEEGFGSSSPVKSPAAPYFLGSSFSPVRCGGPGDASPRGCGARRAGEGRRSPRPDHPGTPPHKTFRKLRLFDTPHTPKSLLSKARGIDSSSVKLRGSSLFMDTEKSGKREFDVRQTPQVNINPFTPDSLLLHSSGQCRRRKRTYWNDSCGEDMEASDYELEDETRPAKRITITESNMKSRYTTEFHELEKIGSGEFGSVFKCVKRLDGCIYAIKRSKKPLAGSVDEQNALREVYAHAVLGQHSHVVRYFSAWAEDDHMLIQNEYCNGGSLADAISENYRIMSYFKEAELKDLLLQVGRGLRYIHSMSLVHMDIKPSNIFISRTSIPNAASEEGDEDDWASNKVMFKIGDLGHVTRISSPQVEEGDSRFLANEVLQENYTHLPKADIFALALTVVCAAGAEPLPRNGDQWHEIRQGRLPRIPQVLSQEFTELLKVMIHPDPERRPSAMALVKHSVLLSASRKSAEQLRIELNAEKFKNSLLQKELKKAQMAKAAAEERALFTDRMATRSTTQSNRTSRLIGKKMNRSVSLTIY

This assay deals with GST-tagged-Wee1 kinase (Homo sapiens, UniProt P30291). As to the kind of experiment: Wee1 time-resolved fluorescence equilibrium binding assay (displacement of Oregon Green-labeled ATP-competitive kinase probe). Here is the method:
Wee1 kinase was assayed using a time-resolved fluorescence equilibrium binding assay monitoring displacement of a rapidly reversible Oregon Green-labeled ATP-competitive kinase probe (N-(2-(2-(2-(4-(4-(5-chloro-4-(2-(1-hydroxycyclobutyl)thiazol-5-yl)-1H-pyrrolo[2,3-b]pyridin-2-yl)phenyl)piperazin-1-yl)ethoxy)ethoxy)ethyl)-2′,7′-difluoro-3′,6′-dihydroxy-3-oxo-3H-spiro[isobenzofuran-1,9′-xanthene]-5-carboxamide) by competitive Wee1 inhibitors.
Regarding `CN1CCN(c2ccc(Nc3ncc4c(=O)n(-c5c(Cl)cccc5Cl)nc(-c5nccn5C)c4n3)cc2)CC1` [Example 354, 6-(2,6-dichlorophenyl)-8-(1-methyl-1H-imidazol-2-yl)-2-{[4-(4-methylpiperazin-1-yl)phenyl]amino}pyrimido[4,5-d]pyridazin-5(6H)-one], the Ki came to 740 nM.

`CN1CCN(c2ccc(Nc3ncc4c(=O)n(-c5c(Cl)cccc5Cl)nc(-c5ccnc(C(=O)N6CCCC6)c5)c4n3)cc2)CC1` [Example 225, 6-(2,6-dichlorophenyl)-2-{[4-(4-methylpiperazin-1-yl)phenyl]amino}-8-[2-(pyrrolidin-1-ylcarbonyl)pyridin-4-yl]pyrimido[4,5-d]pyridazin-5(6H)-one] displayed a Ki of 0.3 nM. `Cc1nn(-c2ccccc2Cl)c(=O)c2cnc(Nc3ccc(NC4CCNCC4)cc3)nc12` [Example 526, 6-(2-chlorophenyl)-8-methyl-2-{[4-(piperidin-4-ylamino)phenyl]amino}pyrimido[4,5-d]pyridazin-5(6H)-one] registered an inhibition constant (Ki) of 0.48 nM. Compared with the last compound, the Ki is about 1.6-fold higher. In turn, `CC1(C)CNCc2cc(Nc3ncc4c(=O)n(-c5ccccn5)nc(-c5ccccn5)c4n3)ccc21` [Example 264, 2-[(4,4-dimethyl-1,2,3,4-tetrahydroisoquinolin-7-yl)amino]-6,8-di(pyridin-2-yl)pyrimido[4,5-d]pyridazin-5(6H)-one] had a Ki of 12 nM. Next, `CC1(C)CNCc2cc(Nc3ncc4c(=O)n(-c5c(Cl)cccc5Cl)nc(C(F)F)c4n3)ccc21` [Example 478]: 0.17 nM. With `CN1Cc2cc(Nc3ncc4c(=O)n(-c5c(Cl)cccc5Cl)nc(C(F)F)c4n3)ccc2C1(C)C` [Example 485, 6-(2,6-dichlorophenyl)-8-(difluoromethyl)-2-[(1,1,2-trimethyl-2,3-dihydro-1H-isoindol-5-yl)amino]pyrimido[4,5-d]pyridazin-5(6H)-one] the figure was 0.15 nM; with `CN1Cc2cc(Nc3ncc4c(=O)n(-c5c(Cl)cccc5Cl)nc(-c5ccccn5)c4n3)ccc2C(C)(C)C1` [Example 241, 6-(2,6-dichlorophenyl)-8-(pyridin-2-yl)-2-[(2,4,4-trimethyl-1,2,3,4-tetrahydroisoquinolin-7-yl)amino]pyrimido[4,5-d]pyridazin-5(6H)-one], 0.1 nM.

`Cc1nn(-c2c(Cl)cccc2Cl)c(=O)c2cnc(Nc3cccc(N4CCN(C5CCOCC5)CC4)c3)nc12` [Example 509, 6-(2,6-dichlorophenyl)-8-methyl-2-({3-[4-(tetrahydro-2H-pyran-4-yl)piperazin-1-yl]phenyl}amino)pyrimido[4,5-d]pyridazin-5(6H)-one] gave a Ki of 1.2 nM. Next, `COCc1nn(-c2c(Cl)cccc2Cl)c(=O)c2cnc(Nc3ccc4c(c3)CNCC43CC3)nc12` [Example 428, 6-(2,6-dichlorophenyl)-2-(2′,3′-dihydro-1′H-spiro[cyclopropane-1,4′-isoquinolin]-7′-ylamino)-8-(methoxymethyl)pyrimido[4,5-d]pyridazin-5(6H)-one]: 0.24 nM; `Cc1nn(-c2c(Cl)cccc2Cl)c(=O)c2cnc(Nc3cccc(N4CCOCC4)c3)nc12` [Example 505, 6-(2,6-dichlorophenyl)-8-methyl-2-{[3-(morpholin-4-yl)phenyl]amino}pyrimido[4,5-d]pyridazin-5(6H)-one]: 2.7 nM; `CN1CCN(c2ccc(Nc3ncc4c(=O)n(-c5ccccc5)nc(CCc5ccccc5)c4n3)cc2)CC1` [Example 9, 2-{[4-(4-methylpiperazin-1-yl)phenyl]amino}-6-phenyl-8-(2-phenylethyl)pyrimido[4,5-d]pyridazin-5(6H)-one]: 61 nM. Next, `CN1CCN(c2ccc(Nc3ncc4c(=O)n(C)nc(C5CCCC5)c4n3)cc2)CC1` [Example 13, 8-cyclopentyl-6-methyl-2-{[4-(4-methylpiperazin-1-yl)phenyl]amino}pyrimido[4,5-d]pyridazin-5(6H)-one]: 620 nM; `Cc1nn(-c2c(Cl)cccc2Cl)c(=O)c2cnc(Nc3ccc(NC4CCNCC4)cc3)nc12` [Example 525, 6-(2,6-dichlorophenyl)-8-methyl-2-{[4-(piperidin-4-ylamino)phenyl]amino}pyrimido[4,5-d]pyridazin-5(6H)-one]: 0.2 nM.

The compound `Cc1nn(-c2c(Cl)cccc2Cl)c(=O)c2cnc(Nc3cccc(C(=O)N4CCC(N(C)C)CC4)c3)nc12` [Example 519, 6-(2,6-dichlorophenyl)-2-[(3-{[4-(dimethylamino)piperidin-1-yl]carbonyl}phenyl)amino]-8-methylpyrimido[4,5-d]pyridazin-5(6H)-one] showed an inhibition constant (Ki) of 0.75 nM. Against the preceding compound, the Ki is about 3.8-fold higher. With `CN1CCN(c2ccc(Nc3ncc4c(=O)n(-c5c(Cl)cccc5Cl)nc(-c5cnccn5)c4n3)cc2)CC1` [Example 271, 6-(2,6-dichlorophenyl)-2-{[4-(4-methylpiperazin-1-yl)phenyl]amino}-8-(pyrazin-2-yl)pyrimido[4,5-d]pyridazin-5(6H)-one] the figure was 0.4 nM. Next, `C=CCn1nc(-c2ccccc2)c2nc(Nc3ccc(N4CCN(C(C)C)CC4)c(C)c3)ncc2c1=O` [Example 169, 6-allyl-2-{[4-(4-isopropylpiperazin-1-yl)-3-methylphenyl]amino}-8-phenylpyrimido[4,5-d]pyridazin-5(6H)-one]: 2 nM; `C=CCn1nc(-c2ccccc2F)c2nc(Nc3ccc(N4CCN(C)CC4)cc3)ncc2c1=O` [Example 35, 6-allyl-8-(2-fluorophenyl)-2-{[4-(4-methylpiperazin-1-yl)phenyl]amino}pyrimido[4,5-d]pyridazin-5(6H)-one]: 18 nM. Next, `Cc1cc(Nc2ncc3c(=O)n(-c4ccccc4C)nc(-c4ccco4)c3n2)ccc1N1CCCN(C(C)C)CC1` [Example 246, 8-(furan-2-yl)-6-(2-methylphenyl)-2-({3-methyl-4-[4-(propan-2-yl)-1,4-diazepan-1-yl]phenyl}amino)pyrimido[4,5-d]pyridazin-5(6H)-one]: 0.3 nM; `CN1CCCC(n2nc(-c3ccccn3)c3nc(Nc4ccc(N5CCNCC5)cc4)ncc3c2=O)C1` (stereo not drawn) [Example 334, 6-(1-methylpiperidin-3-yl)-2-{[4-(piperazin-1-yl)phenyl]amino}-8-(pyridin-2-yl)pyrimido[4,5-d]pyridazin-5(6H)-one]: 640 nM; `CC(=O)c1cccc(-c2nn(-c3c(Cl)cccc3Cl)c(=O)c3cnc(Nc4ccc(N5CCN(C)CC5)cc4)nc23)n1` [Example 175, 8-(6-acetylpyridin-2-yl)-6-(2,6-dichlorophenyl)-2-{[4-(4-methylpiperazin-1-yl)phenyl]amino}pyrimido[4,5-d]pyridazin-5(6H)-one]: 0.2 nM. The compound `CN1Cc2cc(Nc3ncc4c(=O)n(-c5c(Cl)cccc5Cl)nc(-c5nccn5C)c4n3)ccc2C2(CC2)C1` [Example 357, 6-(2,6-dichlorophenyl)-2-[(2′-methyl-2′,3′-dihydro-1′H-spiro[cyclopropane-1,4′-isoquinolin]-7′-yl)amino]-8-(1-methyl-1H-imidazol-2-yl)pyrimido[4,5-d]pyridazin-5(6H)-one] registered an inhibition constant (Ki) of 0.87 nM. Compared with the last compound, the Ki is about 4.3-fold higher.

Consider `O=c1c2cnc(Nc3ccc4c(c3)CNCC4)nc2cnn1-c1c(Cl)cccc1Cl` [Example 327, 6-(2,6-dichlorophenyl)-2-(1,2,3,4-tetrahydroisoquinolin-7-ylamino)pyrimido[4,5-d]pyridazin-5(6H)-one], for which the Ki was found to be 0.93 nM. The Ki values of the last two compounds are within 1.5-fold of each other.

Take `O=c1c2cnc(Nc3ccc(N4CCNCC4)cc3)nc2c(-c2nccs2)nn1-c1ncccc1Cl` [Example 347, 6-(3-chloropyridin-2-yl)-2-{[4-(piperazin-1-yl)phenyl]amino}-8-(1,3-thiazol-2-yl)pyrimido[4,5-d]pyridazin-5(6H)-one]: the inhibitory constant (Ki) is 6.5 nM. This Ki is about 7-fold higher than that of the compound before. Next, `O=c1c2cnc(Nc3ccc(N4CCNCC4)cc3)nc2c(-c2cnccn2)nn1-c1c(Cl)cccc1Cl` [Example 220, 6-(2,6-dichlorophenyl)-2-{[4-(piperazin-1-yl)phenyl]amino}-8-(pyrazin-2-yl)pyrimido[4,5-d]pyridazin-5(6H)-one]: 0.4 nM; `Cc1nn(-c2c(Cl)cccc2Cl)c(=O)c2cnc(Nc3ccc(N4CCNC(=O)C4)cc3)nc12` [Example 442, 6-(2,6-dichlorophenyl)-8-methyl-2-{[4-(3-oxopiperazin-1-yl)phenyl]amino}pyrimido[4,5-d]pyridazin-5(6H)-one]: 0.46 nM; `CN1CCN(c2ccc(Nc3ncc4c(=O)[nH]nc(-c5ccccc5)c4n3)cc2)CC1` [Example 4, 2-{[4-(4-methylpiperazin-1-yl)phenyl]amino}-8-phenylpyrimido[4,5-d]pyridazin-5(6H)-one]: 25 nM. With `CN(C)Cc1cccc(-c2nn(-c3c(Cl)cccc3Cl)c(=O)c3cnc(Nc4ccc(N5CCN(C)CC5)cc4)nc23)c1` [Example 184, 6-(2,6-dichlorophenyl)-8-{3-[(dimethylamino)methyl]phenyl}-2-{[4-(4-methylpiperazin-1-yl)phenyl]amino}pyrimido[4,5-d]pyridazin-5(6H)-one] the figure was 0.03 nM; with `CN1CCN(c2ccc(Nc3ncc4c(=O)n(-c5ccccc5)nc(-c5cccc(F)c5)c4n3)cc2)CC1` [Example 82, 8-(3-fluorophenyl)-2-{[4-(4-methylpiperazin-1-yl)phenyl]amino}-6-phenylpyrimido[4,5-d]pyridazin-5(6H)-one], 9 nM; with `CN1CCN(c2ccc(Nc3ncc4c(=O)n(-c5c(Cl)cccc5Cl)nc(-c5cccc(Br)c5)c4n3)cc2)CC1` [Example 72, 8-(3-bromophenyl)-6-(2,6-dichlorophenyl)-2-{[4-(4-methylpiperazin-1-yl)phenyl]amino}pyrimido[4,5-d]pyridazin-5(6H)-one], 0.5 nM. With `Cc1nn(-c2c(Cl)cccc2Cl)c(=O)c2cnc(Nc3cccc(C(=O)NC4CCN(C)CC4)c3)nc12` [Example 523, 3-{[6-(2,6-dichlorophenyl)-8-methyl-5-oxo-5,6-dihydropyrimido[4,5-d]pyridazin-2-yl]amino}-N-(1-methylpiperidin-4-yl)benzamide] the figure was 0.5 nM.
